Experimental data from patent US12146167B2 (priority 2021, dated 2024).

Legend:
Details in all cases: pH 7.5
[1] = system: Cg_MetY_P2T (O-acetylhomoserine sulfhydrylase variant metY_P2T, SEQ ID NO: 6); format: biochemical, Corynebacterium glutamicum ATCC 13032
[2] = system: Hn_MetZ (O-succinylhomoserine sulfhydrylase metZ, SEQ ID NO: 14); format: biochemical, Hyphomonas neptunium ATCC 15444
[3] = system: Cg_MetY (O-acetylhomoserine sulfhydrylase metY, SEQ ID NO: 2); format: biochemical, Corynebacterium glutamicum ATCC 13032
[4] = system: Cv_MetZ (O-succinylhomoserine sulfhydrylase metZ, SEQ ID NO: 10); format: biochemical, Chromobacterium violaceum ATCC 12472

Measured: Product

CS [MM, methyl mercaptane]
yes: all assays above
